{"source": "paper PMC9317397", "about": "“Design and Synthesis of Hepatitis B Virus (HBV) Capsid Assembly Modulators and Evaluation of Their Activity in Mammalian Cell Model” (Pharmaceuticals, 2022)", "key": {"HBV [1]": {"system": "HBV", "assay": "microbe, parasite or virus in culture", "details": "Hepatitis B virus, HepG2.2.15, 144 h, read-out: EC50 (50% reduction of HBV DNA), HepG2.2.15 cells, six days, 0–20 µM"}, "HBV [2]": {"system": "HBV", "details": "HepG2.2.15 cells; for HBV DNA, % from control: six days, secreted virion DNA"}, "primary hepatocytes": {"system": "primary hepatocytes", "design": "method as in PMID 25921762", "details": "cited from earlier work"}, "BHK-21 cells [3]": {"system": "BHK-21 cells", "assay": "Cytopathic effect (cell morphology, proliferation, trypan blue) in non-infected BHK-21 cells", "type": "cell-based, hamster", "details": "24 h", "description": "To define HAP compound non-toxic concentrations for initial studies, non-infected BHK-21 cells were incubated with compounds at four different concentrations for 24 h (25 μM, 50 μM, 100 μM, and 200 μM), and the cytopathic effects were evaluated by analysis of cell morphology and proliferation changes. […] 1c, 1j, 1k and 4a, and 7b. The reference comp.\nThe cytopathic effect of the compounds was estimated by phase contrast microscopy and standard trypan blue staining, and the cells were counted using an automatic cell counter (Invitrogen). BHK-21 and HepG2.2.15 cells were incubated for 24 h with the studied compounds at […] (25, 50, 100, 150 and 200 μM) and the cell morphology was controlled under microscope to evaluate cytopathic effects (Table 1, the highest non-toxic concentration)."}, "[4]": {"molecular_target": "HBV capsid assembly (full-length HBc protein, genotype D1) (Hepatitis B virus genotype D subtype ayw, UniProt P03146, A80I/T33N/V74G)", "sequence (P03146 whole entry A80I/T33N/V74G, looked up)": "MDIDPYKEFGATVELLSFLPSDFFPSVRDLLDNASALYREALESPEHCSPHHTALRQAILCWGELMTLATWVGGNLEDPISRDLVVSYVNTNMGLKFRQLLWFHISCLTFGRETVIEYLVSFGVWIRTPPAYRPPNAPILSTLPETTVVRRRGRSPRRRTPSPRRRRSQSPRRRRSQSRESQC", "assay": "HBV capsid assembly in SFV1/HBc-infected HBc-producing BHK-21 cells, native agarose gel anti-HBc immunoblot", "type": "cell-based", "details": "HBc-producing BHK-21 cells; for Type of effect on HBV capsid assembly in dose-dependent experiments: 0.1–50 µM, 24 h (Figure 6); for Effect on Capsid Assembly / Effect on Capsid Assembly, Starting Concentration: 24 h, native agarose immunoblot"}, "[5]": {"molecular_target": "HBV capsids (HBc assembly products) (Hepatitis B virus genotype D subtype ayw, UniProt P03146, A80I/T33N/V74G)", "sequence (P03146 whole entry A80I/T33N/V74G, looked up)": "as above", "assay": "Electron microscopy of HBc assembly products purified from treated BHK-21 cells", "type": "cell-based", "details": "50 μM, 24 h, sucrose cushion pellet"}, "BHK-21 cells [6]": {"system": "BHK-21 cells", "assay": "MTT viability assay in BHK-21 cells", "type": "cell-based, hamster", "details": "6.125–200 µM, 24 h", "description": "BHK-21 cells were incubated with different concentrations (6.125, 12.25, 25, 50, 100, and 200 µM) of the respective compounds and the cell viability was calculated as a percentage from untreated cells (100%) (Figure 7). In general, the results confirmed the morphological observation of relatively low cytotoxicity for tested compounds at concentrations below 100 µM.\nAdditionally, cell viability was determined by tetrazolium salt-based assay using the Vybrant MTT Cell Proliferation kit (Thermo Fisher Scientific, Waltham, MA, USA) or more sensitive CCK-8 kit (Abcam). First, the cell numbers and protocol were optimized for BHK-21 and HepG2.2.15 cells, as indicated in the MTT assay kit or CCK-8 reagent manufacturer’s protocol, and standard curves with OD values were created and evaluated.\nIn order to evaluate the toxicity of selected HAP compounds in the medium, 1.3 × 10^4 BHK-21 were seeded per well in 96-well plates and treated with the studied compounds for 24 h at concentrations 6.125; 12.25; 25; 50; 100; and 200 μM. Control cells without HAP compounds and MTT-free cell media were included in the experiments. The MTT test was performed according to the full protocol version (Thermo Fisher Scientific)."}, "HepG2.2.15 cells": {"system": "HepG2.2.15 cells", "assay": "MTT viability test in HepG2.2.15 cells (TC50)", "type": "cell-based, human", "details": "48 h, 0–200 µM", "experimental": "In order to compare the cytotoxicity of compounds 1d and 1e in HBV producing HepG2.2.15 cells, the toxic concentrations (TC50 values) were estimated (Figure 9B,C).\nIn order to calculate the median of the toxic concentration (TC50) of the compounds, 1.33 × 10^5 HepG2.2.15 cells per well were seeded into a 24-well plate. After 24 h, the cells were treated with the test compounds at different concentrations (0, 50, 100, 150, 200 μM) and incubated for 48 h at 37 °C. All experiments were carried out in three identical repeats and the coefficient of variation and standard deviation were calculated from at least two independent experiments.\nThe percent inhibition at each compound concentration was calculated by normalization of the signals to the signals from non-treated HepG2.2.15 cells. […] Data points and error bars represent the means and standard deviations from at least two independent experiments, respectively. Comparisons between data groups were performed using the unpaired t test, with p values < 0.05 being considered statistically significant."}, "HBc protein": {"molecular_target": "HBc protein (Hepatitis B virus genotype D subtype ayw, UniProt P03146, A80I/T33N/V74G)", "sequence (P03146 whole entry A80I/T33N/V74G, looked up)": "as above", "assay": "Anti-HBc immunostaining and confocal microscopy of HBc-producing BHK-21 cells", "type": "cell-based", "details": "20 μM and 50 μM, 24 h"}}, "note": "“Also recorded” adds a separate entry of the source. Like-named read-outs stand apart in the source and are kept apart here."}
{"compound": "COC(=O)C1=C(C)NC(c2ncc(F)cc2F)=NC1c1ccc(F)cc1Cl", "note": "(centres unmarked) [1a, Bay 41-4109, reference compound]", "values": [{"measurement": "EC50", "setting": "HBV [1]", "value": 0.35, "unit": "µM"}, {"measurement": "HBV DNA, % from control", "setting": "HBV [2]; 10 µM", "value": 2.5, "unit": "%"}, {"measurement": "Toxic concentration", "setting": "primary hepatocytes", "value": 5.06, "unit": "µM"}, {"measurement": "Concentration revealing cell toxicity signs", "setting": "BHK-21 cells [3]; BHK-21 cells", "value": 100, "unit": "µM"}, {"measurement": "The Highest Non-Toxic Concentration", "setting": "BHK-21 cells [3]; non-infected BHK-21 cells, no noticeable cytopathic effect", "value": 100, "unit": "µM"}, {"measurement": "Type of effect on HBV capsid assembly in dose-dependent experiments", "setting": "[4]", "value": "dose-dependent HBc signal decrease"}, {"measurement": "Effect on Capsid Assembly", "setting": "[4]", "value": "Dose dependent capsid signal decrease"}, {"measurement": "Effect on Capsid Assembly, Starting Concentration", "setting": "[4]", "value": 1, "unit": "µM"}]}
{"compound": "CCOCCOC(=O)C1=C(C)NC(c2ncc(F)cc2F)=NC1c1ccc(F)cc1Cl", "note": "(centres unmarked) [1d]", "values": [{"measurement": "Morphology of HBc assembly products by electron microscopy", "setting": "[5]", "value": "irregularly shaped structures that resembled capsids of the wrong size and incorrect symmetry, as well as the capsid aggregates"}, {"measurement": "EC50", "setting": "HBV [1]", "value": 6.24, "unit": "µM"}, {"measurement": "SI (TC50/EC50)", "setting": "HBV [2]", "value": 28}, {"measurement": "HBV DNA, % from control", "setting": "HBV [2]; 20 µM", "value": 6.5, "unit": "%"}, {"measurement": "Decrease in the amount of HBV virion release compared with control", "setting": "HBV [2]; Figure 8", "value": "≤ 93.5", "unit": "%"}, {"measurement": "Cell viability compared to untreated control", "setting": "BHK-21 cells [6]", "value": "did not demonstrate the difference in cell viability"}, {"measurement": "TC50", "setting": "HepG2.2.15 cells", "value": 175, "unit": "µM"}, {"measurement": "Intracellular localization of HBc", "setting": "HBc protein", "value": "speckled dot pattern of HBc distribution in the cytoplasm; also recorded: blocked the intranuclear transport of HBc protein"}, {"measurement": "Type of effect on HBV capsid assembly in dose-dependent experiments", "setting": "[4]", "value": "dose-dependent HBc products accumulation"}, {"measurement": "Effect on capsid production / mobility in initial test", "setting": "[4]; 1–50 μM, 24 h (Figure 5)", "value": "misfolding of the HBV capsid"}, {"measurement": "Effect on Capsid Assembly", "setting": "[4]", "value": "HBc accumulation, aggregates/or incorrect capsid structures"}, {"measurement": "Effect on Capsid Assembly, Starting Concentration", "setting": "[4]", "value": 5, "unit": "µM"}]}
